Source: US20140193827A1 (TEVA PHARMACEUTICAL INDUSTRIES, LTD., priority 2013, published 2014)

Test system: GA-primed murine splenocytes
Test: Tolerance method for assessing process variability

glatiramer acetate [GA]
AVG expression D8ERTD82E (probe ILMN_2731237): 8.974
AVG expression MYO1F (probe ILMN_2731760): 8.593
AVG expression CDC42EP3 (probe ILMN_2733185): 8.258
AVG expression TLR2 (probe ILMN_2733733): 8.191
AVG expression IL4I1 (probe ILMN_2733778): 13.39
AVG expression CD1D1 (probe ILMN_2734212): 8.262
AVG expression RAMP1 (probe ILMN_2734391): 7.212
AVG expression ISG20 (probe ILMN_2735615): 8.139
AVG expression IL4RA (probe ILMN_2738433): 6.897
AVG expression PDE2A (probe ILMN_2740407): 6.704
AVG expression NDRG3 (probe ILMN_2740628): 7.26
AVG expression IL17F (probe ILMN_2741201): 9.282
AVG expression NUPR1 (probe ILMN_2742042): 7.513
AVG expression CSRP3 (probe ILMN_2742068): 7.26
AVG expression SERPINA3F (probe ILMN_2742861): 9.63
AVG expression MATK (probe ILMN_2743902): 6.954
AVG expression GADD45G (probe ILMN_2744890): 10.65
AVG expression DOCK10 (probe ILMN_2749063): 7.866
AVG expression CSF2 (probe ILMN_2749412): 7.94
AVG expression SPATA13 (probe ILMN_2751037): 10.49
AVG expression 4931429111RIK (probe ILMN_2751111): 6.944
AVG expression PHXR4 (probe ILMN_2751603): 8.973
AVG expression 2210010N04RIK (probe ILMN_2752436): 7.364
AVG expression TGTP (probe ILMN_2754158): 7.894
AVG expression LTF (probe ILMN_2754364): 8.257
AVG expression CD84 (probe ILMN_2754698): 9.661
AVG expression FFAR2 (probe ILMN_2756046): 9.337
AVG expression D7BWG0611E (probe ILMN_2756438): 6.424
AVG expression ENO3 (probe ILMN_2757569): 8.71
AVG expression BC031353 (probe ILMN_2757807): 9.011
AVG expression PRTN3 (probe ILMN_2758029): 6.472
AVG expression SYPL (probe ILMN_2758720): 11.58
AVG expression TMEM66 (probe ILMN_2758878): 8.06
AVG expression CLIC4 (probe ILMN_2761109): 11.63
AVG expression LOC100041103 (probe ILMN_2761720): 7.612
AVG expression TBX21 (probe ILMN_2762983): 8.48
AVG expression BC032203 (probe ILMN_2763739): 10.17
AVG expression ASB2 (probe ILMN_2765759): 8.795
AVG expression CAMP (probe ILMN_2766604): 8.176
AVG expression OCIAD2 (probe ILMN_2766875): 6.716
AVG expression ATP1B1 (probe ILMN_2767615): 7.592
AVG expression IFI30 (probe ILMN_2767918): 10.97
AVG expression PIK3IP1 (probe ILMN_2769772): 7.746
AVG expression TIMP1 (probe ILMN_2769918): 6.577
AVG expression LOC100044439 (probe ILMN_2770066): 9.229
AVG expression IGH-VJ558 (probe ILMN_2772264): 10.58
AVG expression GLIPR2 (probe ILMN_2773900): 10.63
AVG expression HSD11B1 (probe ILMN_2774160): 8.176
AVG expression STFA1 (probe ILMN_2774410): 8.3801
AVG expression HIST1H1C (probe ILMN_2774537): 8.165
AVG expression SPO11 (probe ILMN_2777019): 6.908
AVG expression GCAT (probe ILMN_2777696): 8.955
AVG expression H2-DMA (probe ILMN_2777769): 12.53
AVG expression LTA (probe ILMN_2780247): 8.582
AVG expression CSRP3 (probe ILMN_2789650): 7.602
AVG expression CD177 (probe ILMN_2789900): 6.628
AVG expression IFNG (probe ILMN_2791459): 9.711
AVG expression RFTN2 (probe ILMN_2795178): 7.218
AVG expression IL12RB1 (probe ILMN_2799452): 7.405
AVG expression S100A9 (probe ILMN_2803674): 11.05
AVG expression TMEM108 (probe ILMN_2804559): 7.473
AVG expression PRM1 (probe ILMN_2806549): 6.894
AVG expression ACOT7 (probe ILMN_2807084): 9.352
AVG expression 3110001A13RIK (probe ILMN_2807335): 8.958
AVG expression PPIC (probe ILMN_2810882): 8.651
AVG expression LBH (probe ILMN_2816180): 11.09
AVG expression CPNE4 (probe ILMN_2818246): 7.052
AVG expression DUSP10 (probe ILMN_2818964): 8.287
AVG expression SC4MOL (probe ILMN_2823778): 9.801
AVG expression USP28 (probe ILMN_2828768): 7.665
AVG expression C330023M02RIK (probe ILMN_2833243): 9.988
AVG expression C330023M02RIK (probe ILMN_2833248): 8.672
AVG expression BRWD1 (probe ILMN_2834573): 7.683
AVG expression EG634650 (probe ILMN_2837493): 6.736
AVG expression ACTN1 (probe ILMN_2844996): 9.845
AVG expression PSAP (probe ILMN_2845080): 11.88
AVG expression KLHDC2 (probe ILMN_2845272): 12.06
AVG expression ACTB (probe ILMN_2846865): 9.645
AVG expression HIF1A (probe ILMN_2852034): 7.906
AVG expression TSPAN32 (probe ILMN_2852672): 9.543
AVG expression HIST1H1C (probe ILMN_2855315): 8.506
AVG expression GPR114 (probe ILMN_2856926): 9.59
AVG expression GBP6 (probe ILMN_2860645): 9.559
AVG expression GBP6 (probe ILMN_2860649): 8.264
AVG expression RHOD (probe ILMN_2862379): 6.304
AVG expression FCER1A (probe ILMN_2863390): 7.15
AVG expression OTTMUSG00000000971 (probe ILMN_2864309): 7.999
AVG expression CD83 (probe ILMN_2865016): 12.24
AVG expression GLDC (probe ILMN_2873750): 6.771
AVG expression LYZ (probe ILMN_2878071): 10.5
AVG expression TMEM66 (probe ILMN_2881296): 9.558
AVG expression LRRK2 (probe ILMN_2883267): 9.942
AVG expression PIRA3 (probe ILMN_2883326): 7.604
AVG expression CCR5 (probe ILMN_2888191): 7.88
AVG expression NSG2 (probe ILMN_2890515): 6.466
AVG expression RGS1 (probe ILMN_2897891): 8.707
AVG expression ATP2A3 (probe ILMN_2900462): 10.34
AVG expression GM484 (probe ILMN_2903169): 7.045
AVG expression GADD45G (probe ILMN_2903945): 12.68
AVG expression ICOS (probe ILMN_2906430): 9.445
AVG expression FCGRT (probe ILMN_2917497): 7.496
AVG expression SCD2 (probe ILMN_2919259): 7.493
AVG expression SLC25A1 (probe ILMN_2919263): 9.787
AVG expression OSM (probe ILMN_2919411): 9.631
AVG expression CASP6 (probe ILMN_2923865): 9.522
AVG expression MPO (probe ILMN_2925094): 6.333
AVG expression SIGLECH (probe ILMN_2928599): 6.936
AVG expression 9130211I03RIK (probe ILMN_2930552): 7.36
AVG expression IL4 (probe ILMN_2931334): 8.425
AVG expression TPI1 (probe ILMN_2932359): 11.19
AVG expression LYZS (probe ILMN_2939681): 6.97
AVG expression DGKA (probe ILMN_2940446): 10.5
AVG expression 4933439C20RIK (probe ILMN_2944601): 9.853
AVG expression HP (probe ILMN_2944824): 8.175
AVG expression RAgenericEF4 (probe ILMN_2945940): 7.203
AVG expression CBX7 (probe ILMN_2947234): 7.729
AVG expression ECM1 (probe ILMN_2947526): 10.05
AVG expression NOC4L (probe ILMN_2957862): 9.678
AVG expression CYP27A1 (probe ILMN_2960108): 6.166
AVG expression CYP27A1 (probe ILMN_2960114): 6.441
AVG expression H2-M2 (probe ILMN_2964185): 6.649
AVG expression CREM (probe ILMN_2964986): 7.2
AVG expression FXYD5 (probe ILMN_2967266): 11.61
AVG expression AMPD1 (probe ILMN_2971142): 6.076
AVG expression FCRLA (probe ILMN_2971171): 10.49
AVG expression BLK (probe ILMN_2976440): 10.05
AVG expression BLK (probe ILMN_2976441): 10.82
AVG expression MAN2A2 (probe ILMN_2977791): 6.779
AVG expression TMED8 (probe ILMN_2979248): 8.811
AVG expression D12ERTD553E (probe ILMN_2983525): 9.137
AVG expression EMP3 (probe ILMN_2984744): 11.52
AVG expression SLC15A3 (probe ILMN_2987709): 10.2
AVG expression STFA1 (probe ILMN_2988931): 7.963
AVG expression CLEC4N (probe ILMN_2993314): 7.76
AVG expression OBFC2A (probe ILMN_2996904): 7.798
AVG expression IL27RA (probe ILMN_3002095): 10.52
AVG expression UNC84B (probe ILMN_3004864): 10.87
AVG expression PPA1 (probe ILMN_3005441): 12.45
AVG expression ASNS (probe ILMN_3006123): 7.885
AVG expression MLKL (probe ILMN_3006767): 8.575
AVG expression ABHD14B (probe ILMN_3007862): 7.744
AVG expression FAM169B (probe ILMN_3014674): 10.41
AVG expression CYP4F18 (probe ILMN_3018445): 6.343
AVG expression KIF1B (probe ILMN_3034877): 7.209
AVG expression GBP2 (probe ILMN_3047389): 7.888
AVG expression GLIPR2 (probe ILMN_3053593): 11.06
AVG expression WARS (probe ILMN_3077377): 7.701
AVG expression AHNAK (probe ILMN_3079919): 7.509
AVG expression CYP4F18 (probe ILMN_3090207): 7.952
AVG expression PKIB (probe ILMN_3094853): 9.029
AVG expression TNFRSF9 (probe ILMN_3103746): 8.744
AVG expression TIMP1 (probe ILMN_3103896): 6.734
AVG expression CETN4 (probe ILMN_3105936): 7.334
AVG expression TXNIP (probe ILMN_3112873): 10.81
AVG expression HSD11B1 (probe ILMN_3115917): 8.516
AVG expression CHI3L3 (probe ILMN_3117876): 7.418
AVG expression LMNA (probe ILMN_3121891): 8.355
AVG expression GBP2 (probe ILMN_3122961): 13.72
AVG expression CD27 (probe ILMN_3128992): 10.96
AVG expression BC004728 (probe ILMN_3130403): 9.315
AVG expression BCAT1 (probe ILMN_3131478): 9.235
AVG expression USP18 (probe ILMN_3131679): 9.931
AVG expression YPEL3 (probe ILMN_3132898): 12.77
AVG expression ANXA3 (probe ILMN_3135781): 7.965
AVG expression SESN1 (probe ILMN_3136744): 9.838
AVG expression LIF (probe ILMN_3137287): 6.404
AVG expression LIF (probe ILMN_3137291): 6.545
AVG expression BTBD11 (probe ILMN_3139253): 6.574
AVG expression SEPP1 (probe ILMN_3141048): 6.844
AVG expression CXCL10 (probe ILMN_3142803): 8.707
AVG expression B3GNT8 (probe ILMN_3149776): 7.035
AVG expression NACC2 (probe ILMN_3153982): 7.11
AVG expression WARS (probe ILMN_3156343): 8.996
AVG expression SYTL3 (probe ILMN_3157081): 7.084
AVG expression PRR7 (probe ILMN_3162239): 7.209
